pEC50, pIC50: −log10 of the molar value. “And” between values parts separate entries of the source, which are not always exact repeats. Identical values can stand only once. Like-named read-outs stand apart in the source and are kept apart here.
Columns and labels:
[1] = system: HeLa (human cervical epithelioid carcinoma); assay: MTT assay, HeLa; format: cell-based; settings: for pIC50: Homo sapiens, MTT assay, HeLa, read-out: IC50 (±SD), HeLa
Method: (§1) All the cell lines and mediums were obtained from the American Type Culture Collection (ATCC) supplied by LGC-Standards (Lomianki, Poland). Human cancer cell lines were cultured as follows: HeLa (human cervix carcinoma) and KB (human oral squamous carcinoma) lines were cultured in DMEM (Dulbecco’s Modified Eagle’s Medium); MCF-7 (human breast carcinoma) and A-549 (human lung carcinoma) were cultured in RPMI 1640 medium; PC-3 (human prostate carcinoma) was cultured in F-12K medium; SKOV-3 (human ovarian cystadenocarcinoma) was cultured in McCoy’s modified medium; HDF (human normal dermal fibroblasts) was cultured in Fibroblast Basal Medium. Each medium was supplemented with 10% fetal bovine serum, 1% L- glutamine and 1% penicillin/streptomycin solution. The cell lines were kept in an incubator at 37 °C.
(§2) All the tested cell lines (HeLa, KB, MCF-7, A-549, PC-3, SKOV-3 and HDF) were subjected to MTT assay. In short, this assay is based on the reaction between mitochondria enzymes (dehydrogenases) of tested cell lines and 3-(4,5-dimethylthiazol-2-yl)-2,5-diphenyltetrazolium bromide (MTT). The final product of this reaction gives violet formazan crystals. The number of live cells is proportional to the amount of formazan and is represented by the violet dye reagent. The details of the experiments are given in [19].

[2] = system: KB (human oral squamous carcinoma); assay: MTT assay, KB; format: cell-based; settings: for pIC50: Homo sapiens, MTT assay, KB; for Selectivity index (SI), KB: IC50 HDF / IC50 KB
Method: as §1, §2

[3] = system: MCF-7 (human breast carcinoma); assay: MTT assay, MCF-7; format: cell-based; settings: for pIC50: Homo sapiens, MCF7, MTT assay, MCF-7, read-out: IC50 (±SD), MCF-7; for Selectivity index (SI), MCF-7: IC50 HDF / IC50 MCF-7
Method: as §1, §2

[4] = system: A-549 (human lung carcinoma); assay: MTT assay, A-549; format: cell-based; settings: for pIC50: Homo sapiens, A549, MTT assay, A-549, read-out: IC50 (±SD), A-549; for Selectivity index (SI), A-549: IC50 HDF / IC50 A-549
Method: as §1, §2

[5] = system: PC-3 (human prostate carcinoma); assay: MTT assay, PC-3; format: cell-based; settings: for pIC50: Homo sapiens, MTT assay, PC-3, read-out: IC50 (±SD), PC-3; for Selectivity index (SI), PC-3: IC50 HDF / IC50 PC-3
Method: as §1, §2

[6] = system: SKOV-3 (human ovarian carcinoma); assay: MTT assay, SKOV-3; format: cell-based; settings: for pIC50: Homo sapiens, SK-OV-3, MTT assay, SKOV-3, read-out: IC50 (±SD), SKOV-3; for Selectivity index (SI), SKOV-3: IC50 HDF / IC50 SKOV-3
Method: as §1, §2

[7] = system: HDF (human dermal fibroblasts); assay: MTT assay, normal HDF; format: cell-based; settings: Homo sapiens, Fibroblast, read-out: IC50 (±SD), HDF
Method: as §1, §2

[8] = system: HeLa, KB, MCF-7, A-549, PC-3 and SKOV-3; assay: MTT assay, summary over the cancer cell lines; format: cell-based, human
Method: as §1, §2

CUPRAC antioxidant assay = settings: calculated from Trolox standard curve
Method: (§3) The results are presented as % inhibition of the copper(II) ions and Trolox equivalent calculated from the standard curve (Figure 9) and as % inhibition of the DPPH radical and Trolox equivalent, calculated from the standard curve (Figure 10).
(§4) The CUPRAC reagent (7.5 mM ethanolic 96% neocuproine solution, 10 mM CuCl2 × H2O solution and an ammonium acetate buffer of pH 7.0) and DPPH reagent (2,2-diphenyl-1-picrylhydrazyl 0.2 mM solution) were applied.
(§5) The CUPRAC method measures the reducing power of a sample by quantifying its ability to convert the Cu-neocuproine reagent complex to the Cu(I) form. In contrast, the DPPH assay relies on the ability of an antioxidant to donate a hydrogen atom or an electron to the stable DPPH radical, resulting in its reduction and subsequent color change. The results are presented as % inhibition of the copper(II) ions and Trolox equivalent calculated from the standard curve (Figure 9) and as % inhibition of the DPPH radical and Trolox equivalent, calculated from the standard curve (Figure 10). The spectroscopic detection in CUPRAC and DPPH assays was conducted with Synergy H1 Multi-Mode Microplate Reader (BioTek Instruments, Inc., Winooski, VT, USA). The details of the experiments are given in [102].

DPPH antioxidant assay = settings: calculated from Trolox standard curve
Method: as §3, §4, §5

[9] = system: Hep-G2 (human hepatocellular carcinoma); settings: read-out: anticancer IC50 (Hep-G2), cited from earlier work
[10] = system: HT-29 (human colorectal adenocarcinoma); settings: cited from earlier work
[11] = system: CCRF-CEM, CEM (human T lymphoblastic leukemia); settings: ref 26; read-out: anticancer IC50 (CCRF-CEM, CEM); cited from earlier work
[12] = system: SMMC-7721 (human hepatocarcinoma); parameters: method as in PMID 35897914; settings: ref 27; read-out: anticancer IC50 (SMMC-7721); cited from earlier work
[13] = system: A-549 (human lung carcinoma); settings: cell line printed as A-459; read-out: anticancer IC50 (A-459); cited from earlier work
[14] = system: HCT-116 (human colorectal carcinoma); settings: ref 38; read-out: anticancer IC50 (HCT-116); cited from earlier work
HCV (Hepatitis C virus) = system: HCV (Hepatitis C virus); parameters: method as in PMID 26102077; settings: ref 32; read-out: antiviral EC50 (HCV); cited from earlier work
[15] = system: SW-480 (human colon adenocarcinoma); parameters: method as in PMID 28981110; settings: ref 38; read-out: anticancer IC50 (SW-480); cited from earlier work
[16] = system: NOZ (human gall bladder carcinoma); parameters: method as in PMID 31915810; settings: ref 39; read-out: anticancer IC50 (NOZ); cited from earlier work
[17] = system: A-2780 (human ovarian carcinoma); parameters: method as in PMID 31277238; settings: ref 40; read-out: anticancer IC50 (A-2780); cited from earlier work

SMILES	pIC50 [1]	pIC50 [2]	Selectivity index (SI), KB [2]	pIC50 [3]	Selectivity index (SI), MCF-7 [3]	pIC50 [4]	Selectivity index (SI), A-549 [4]	pIC50 [5]	Selectivity index (SI), PC-3 [5]	pIC50 [6]	Selectivity index (SI), SKOV-3 [6]	pIC50 [7]	Trolox Equivalent, CUPRAC Assay (CUPRAC antioxidant assay)	Trolox Equivalent, DPPH Assay (DPPH antioxidant assay)	pIC50 [11]	further results
CC1(C)CC[C@]2(CO)CC[C@]3(C)C(=CC[C@@H]4[C@@]5(C)CC[C@H](O)C(C)(C)[C@@H]5CC[C@]43C)[C@@H]2C1 [2a, erythrodiol]	4.27	4.18	0.42	4.18	0.43	4.20	0.44	4.68	1.32	4.74	1.53	4.55	0.09414 mg/mL and 0.09414 ± 0.0095 mg/mL	0.02092 mg/mL and 0.02092 ± 0.000866 mg/mL	3.60	times less active than oleanolic acid 1a ([8]; HeLa, KB, MCF-7 and A-459 cell lines): 4.4–7.2 times; pIC50 ([9]; ref 24): 4.56; pIC50 ([9]; ref 27): 4.06; pEC50 ([10]; ref 25, read-out: anticancer EC50 (HT-29)): 4.31; pIC50 [12]: 4.19; pIC50 [13]: 4.20
C=C(C)[C@@H]1CC[C@]2(C(=O)O)CC[C@]3(C)[C@H](CC[C@@H]4[C@@]5(C)CC[C@H](O)C(C)(C)[C@@H]5CC[C@]43C)[C@@H]12 [4a, betulinic acid]	4.56	4.45	0.56	4.55	0.71	4.58	0.76	4.97	1.88	5.02	2.09	4.70	0.07632 ± 0.00727 mg/mL	0.01526 ± 0.000632 mg/mL	4.52	Selectivity index (SI), HeLa ([1]; IC50 HDF / IC50 HeLa): 0.72; cytotoxic activity class ([8]; classification by IC50 (good ≤ 10 μM, moderate 10–30 μM, ref 83)): high or moderately high activity; pIC50 [14]: 3.75; pIC50 ([10]; ref 38, read-out: anticancer IC50 (HT-29)): 3.90; pEC50 (HCV (Hepatitis C virus)): 4.95; pIC50 [15]: 4.24; pIC50 [16]: 4.52; pIC50 [17]: 4.35
